Measurements: US8987314B2, “Amide, urea or sulfone amide linked benzothiazole inhibitors of endothelial lipase” (Bristol-Myers Squibb Company, priority 2012, dated 2015)

How the values were obtained:
[1] = molecular target: Endothelial lipase (EL) (Homo sapiens (Human), UniProt Q9Y5X9); experiment: EL assay: endothelial lipase activity with fluorescent substrate A10070 in DMPG vesicles; format: biochemical
How it was run: (§1)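 Vesicles prepared: A10070 dried with DMPG, resuspended in HEPES pH 8.0/NaCl/EDTA, sonicated on ice. Enzyme incubated with compound 30 min at 37° C. Reaction started with 1:10 diluted vesicles. Fluorescence (490/530 nm) followed 60 min; slope from 300–900 secs gives rate.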

[2] = molecular target: hepatic lipase (HL) (Homo sapiens (Human), UniProt P11150); experiment: HL assay: hepatic lipase activity with fluorescent substrate A10070 in DMPG vesicles; format: biochemical
Chain of hepatic lipase (HL) (P11150 23-499, species assumed): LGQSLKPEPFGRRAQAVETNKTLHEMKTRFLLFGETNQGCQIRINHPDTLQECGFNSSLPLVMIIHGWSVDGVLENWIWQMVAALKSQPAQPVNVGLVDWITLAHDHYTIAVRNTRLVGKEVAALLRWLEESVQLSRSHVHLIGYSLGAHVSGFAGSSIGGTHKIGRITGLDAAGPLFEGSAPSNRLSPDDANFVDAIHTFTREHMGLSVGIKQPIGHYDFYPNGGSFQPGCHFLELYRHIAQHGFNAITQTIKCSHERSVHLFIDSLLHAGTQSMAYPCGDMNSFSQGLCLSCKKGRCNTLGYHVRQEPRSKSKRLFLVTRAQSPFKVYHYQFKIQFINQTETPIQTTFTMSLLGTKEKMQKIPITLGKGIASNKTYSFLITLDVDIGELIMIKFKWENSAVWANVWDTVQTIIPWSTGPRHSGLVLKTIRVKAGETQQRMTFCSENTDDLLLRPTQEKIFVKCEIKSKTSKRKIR
How it was run: as §1

Chain of Endothelial lipase (EL) (Q9Y5X9 21-500): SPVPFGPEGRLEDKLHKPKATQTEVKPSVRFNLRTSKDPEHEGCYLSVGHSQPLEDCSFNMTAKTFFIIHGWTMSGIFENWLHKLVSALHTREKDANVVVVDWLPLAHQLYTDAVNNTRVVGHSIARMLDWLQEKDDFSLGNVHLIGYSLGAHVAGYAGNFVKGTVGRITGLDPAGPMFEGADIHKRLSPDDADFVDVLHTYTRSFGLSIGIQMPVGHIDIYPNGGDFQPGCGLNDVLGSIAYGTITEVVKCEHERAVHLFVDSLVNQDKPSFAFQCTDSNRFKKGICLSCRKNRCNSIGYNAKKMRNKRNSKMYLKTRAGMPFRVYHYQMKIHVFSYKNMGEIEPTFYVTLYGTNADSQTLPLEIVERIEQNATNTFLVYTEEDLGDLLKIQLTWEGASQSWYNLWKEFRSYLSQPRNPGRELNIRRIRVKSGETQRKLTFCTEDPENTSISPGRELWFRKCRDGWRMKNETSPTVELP

An IC50 [1] of 0.5 nM and an IC50 [2] of 7.1 nM were found for COCCNC(=O)c1ccc(-c2ccc3sc(C(C(=O)NCCS(N)(=O)=O)S(C)(=O)=O)nc3c2)cc1 (stereo not drawn) [Example B93, N-(2-methoxyethyl)-4-(2-(1-(methylsulfonyl)-2-oxo-2-((2-sulfamoylethyl)a-mino)ethyl)-1,3-benzothiazol-5-yl)ben-zamide] in this work.
An IC50 [1] of less than 10 nM and an IC50 [2] of 142 nM were found for Cn1cc(-c2cc3sc(C(C(=O)NCCS(N)(=O)=O)S(=O)(=O)Cc4ccccc4)nc3cc2F)cn1 (stereo not drawn) [Example B138, 2-(benzylsulfonyl)-2-(5-fluoro-6-(1-methyl-1H-pyrazol-4-yl)-1,3-benzothiazol-2-yl)-N-(2-sulfamoylethyl)acetamide] in this work.
An IC50 [1] of 37 nM and an IC50 [2] of 317 nM were found for COCCn1cc(-c2ccc3nc(C(C(=O)NCCS(N)(=O)=O)S(=O)(=O)CC4CC4)sc3c2)cn1 (stereo not drawn) [Example B165, 2-((cyclopropylmethyl)sul-fonyl)-2-(6-(1-(2-methoxyethyl)-1H-pyrazol-4-yl)-1,3-benzothiazol-2-yl)-N-(2-sulfamoylethyl)a-cetamide] in this work.
An IC50 [1] of 53.8 nM and an IC50 [2] of 365 nM were found for NS(=O)(=O)CCNC(=O)C(c1nc2ccc(-c3ccc(C(=O)N4CCOCC4)cc3)cc2s1)S(=O)(=O)CC1CC1 (stereo not drawn) [Example B283, 2-cyclopropylmethane-sulfonyl-2-{6-[4-(morpholine-4-carbonyl)phenyl]-1,3-benzothiazol-2-yl}-N-(2-sulfamoylethyl)acetamide] in this work.
An IC50 [1] of 0.7 nM and an IC50 [2] of 35.2 nM were found for COCCN(C)C(=O)c1ccc(-c2ccc3nc(C(C(=O)NCCS(N)(=O)=O)S(=O)(=O)CC4CC4)sc3c2)cc1 (stereo not drawn) [Example B291, 4-(2-{cyclopropylmethane-sulfonyl[(2-sulfamoyl-ethyl)carbamoyl]methyl}-1,3-benzothiazol-6-yl)-N-(2-methoxyethyl)-N-methylbenzamide] in this work.
An IC50 [1] of 0.6 nM and an IC50 [2] of 175 nM were found for CS(=O)(=O)C(C(=O)NCCS(N)(=O)=O)c1nc2cc(-c3ccc(C(=O)N4CC(F)(F)C4)cc3)ccc2s1 (stereo not drawn) [Example B321, 2-{5-[4-(3,3-difluoroazetidine-1-carbonyl)phenyl]-1,3-benzothiazol-2-yl}-2-methanesulfonyl-N-(2-sulfamoylethyl)acetamide] in this work.
An IC50 [1] of 4.4 nM and an IC50 [2] of 3.6 nM were found for COCc1cccc(-c2ccc3nc(C(C(=O)NCCS(N)(=O)=O)S(C)(=O)=O)sc3c2)c1 (stereo not drawn) [Example B215, 2-methanesulfonyl-2-{6-[3-(methoxymethyl)phen-yl]-1,3-benzothiazol-2-yl}-N-(2-sulfamoylethyl)a-cetamide] in this work.
An IC50 [1] of less than 10 nM and an IC50 [2] of less than 10 nM were found for COCCS(=O)(=O)C(C(=O)NCCS(N)(=O)=O)c1nc2ccc(-c3ccccc3)cc2s1 (stereo not drawn) [Example B103, 2-((2-methoxyethyl)sul-fonyl)-2-(6-phenyl-1,3-benzothiazol-2-yl)-N-(2-sulfamoylethyl)acetemide] in this work.
An IC50 [1] of less than 10 nM and an IC50 [2] of 66 nM were found for CC(=O)Nc1cccc(-c2ccc3nc(C(C(=O)NCCS(N)(=O)=O)S(C)(=O)=O)sc3c2)c1 (stereo not drawn) [Example B52, 2-(6-(3-acetamidophenyl)-1,3-benzothiazol-2-yl)-2-(methylsulfonyl)-N-(2-sulfamoylethyl)acetamide] in this work.
An IC50 [1] of 6.8 nM and an IC50 [2] of 28.4 nM were found for NS(=O)(=O)CCNC(=O)C(c1nc2ccc(-c3cccc(C(=O)NC4CCC4)c3)cc2s1)S(=O)(=O)CCC(F)(F)F (stereo not drawn) [Example B337, N-cyclobutyl-3-(2-{[(2-sulfamoylethyl)carba-moyl](3,3,3-trifluoropropane-sulfonyl)methyl}-1,3-benzothiazol-6-yl)benzamide] in this work.
An IC50 [1] of 225 nM and an IC50 [2] of 43.5 nM were found for Cc1nnc(CNC(=O)C(c2nc3ccc(-c4cccc(N(C)C)c4)cc3s2)S(=O)(=O)Cc2ccccc2)o1 (stereo not drawn) [Example B255, 2-{6-[3-(dimethylamino)phen-yl]-1,3-benzothiazol-2-yl}-N-[(5-methyl-1,3,4-oxadiazol-2-yl)methyl]-2-phenylmethanesulfonyl-acetamide] in this work.
An IC50 [1] of less than 10 nM and an IC50 [2] of 152 nM were found for NS(=O)(=O)CCNC(=O)C(c1nc2ccc(-c3ccc(CCO)cc3)cc2s1)S(=O)(=O)CCC(F)(F)F (stereo not drawn) [Example B53, 2-(6-(4-(2-hydroxyethyl)phen-yl)-1,3-benzothiazol-2-yl)-N-(2-sulfamoylethyl)-2-((3,3,3-trifluoropropyl)sul-fonyl)acetamide] in this work.
An IC50 [1] of 121 nM and an IC50 [2] of 1230 nM were found for Cn1cc(-c2ccc3nc(C(C(=O)NCCS(N)(=O)=O)S(=O)(=O)Cc4ccc(C(F)(F)F)cc4)sc3c2)ccc1=O (stereo not drawn) [Example B361] in this work.
An IC50 [1] of less than 10 nM and an IC50 [2] of 33 nM were found for COc1cc(-c2ccc3nc(C(C(=O)NCCS(N)(=O)=O)S(=O)(=O)CCC(F)(F)F)sc3c2)ccn1 (stereo not drawn) [Example B144, 2-(6-(2-methoxy-4-pyridinyl)-1,3-benzothiazol-2-yl)-N-(2-sulfamoylethyl)-2-((3,3,3-trifluoropropyl)sulfonyl)a-cetamide] in this work.
An IC50 [1] of less than 10 nM and an IC50 [2] of 411 nM were found for Cc1cc2nc(C(C(=O)NCCS(N)(=O)=O)S(=O)(=O)C(C)C)sc2cc1-c1ccc(F)nc1 (stereo not drawn) [Example B132, 2-(6-(6-fluoro-3-pyridinyl)-5-methyl-1,3-benzothiazol-2-yl)-2-(isopropylsulfonyl)-N-(2-sulfamoylethyl)acetamide] in this work.
An IC50 [1] of less than 10 nM and an IC50 [2] of less than 10 nM were found for CS(=O)(=O)C(C(=O)NCCS(N)(=O)=O)c1nc2cc(-c3ccccc3)ccc2s1 (stereo not drawn) [Example B92, 2-(methylsulfonyl)-2-(5-phenyl-1,3-benzothiazol-2-yl)-N-(2-sulfamoylethyl)a-cetamide] in this work.
An IC50 [1] of less than 10 nM and an IC50 [2] of 612 nM were found for NS(=O)(=O)CCNC(=O)C(c1nc2ccc(-c3cnn(CCN4CCOCC4)c3)cc2s1)S(=O)(=O)CCC(F)(F)F (stereo not drawn) [Example B69, 2-(6-(1-(2-(4-morpholinyl)eth-yl)-1H-pyrazol-4-yl)-1,3-benzothiazol-2-yl)-N-(2-sulfamoylethyl)-2-((3,3,3-trifluoropropyl)sul-fonyl)acetamide] in this work.
An IC50 [1] of 1.2 nM and an IC50 [2] of 107 nM were found for COCCNC(=O)c1ccc(-c2ccc3nc(C(C(=O)NCCS(N)(=O)=O)S(=O)(=O)Cc4cccc(C#N)c4)sc3c2)cc1 (stereo not drawn) [Example B115] in this work.
An IC50 [1] of 4.4 nM and an IC50 [2] of 219 nM were found for Cn1cc(-c2ccc3nc(C(C(=O)NCCS(N)(=O)=O)S(=O)(=O)Cc4cccc(C(F)(F)F)c4)sc3c2)ccc1=O (stereo not drawn) [Example B366, 2-[6-(1-methyl-6-oxo-1,6-dihydropyridin-3-yl)-1,3-benzothiazol-2-yl]-N-(2-sulfamoylethyl)-2-{[3-(trifluoromethyl)phen-yl]methanesulfonyl}a-cetamide] in this work.
An IC50 [1] of less than 10 nM and an IC50 [2] of 19 nM were found for CS(=O)(=O)C(C(=O)NCCS(N)(=O)=O)c1nc2ccc(-c3ccc(C(=O)NCCO)cc3)cc2s1 (stereo not drawn) [Example B40, N-(2-hydroxyethyl)-4-(2-(1-(methylsulfonyl)-2-oxo-2-((2-sulfamoylethyl)a-mino)ethyl)-1,3-benzothiazol-6-yl)ben-zamide] in this work.
An IC50 [1] of 4.9 nM and an IC50 [2] of 15.4 nM were found for Cc1nnc(-c2ccc(-c3ccc4nc(C(C(=O)NCCS(N)(=O)=O)S(C)(=O)=O)sc4c3)cc2)o1 (stereo not drawn) [Example B225, 2-methanesulfonyl-2-{6-[4-(5-methyl-1,3,4-oxadiazol-2-yl)phenyl]-1,3-benzothiazol-2-yl}-N-(2-sulfamoylethyl)a-cetamide] in this work.
